# Test results taken from article PMC2663005 (Bioorganic & medicinal chemistry, 2009).
# Experiments:
# S. aureus SrtAΔN24 [1] = target: T1, S. aureus SrtAΔN24 (Staphylococcus aureus, UniProt Q2FV99); assay: biochemical; format: biochemical; conditions: for Hill Coefficient: fit of fractional activity vs inhibitor concentration
# S. aureus SrtAΔN24 [2] = target: T1, S. aureus SrtAΔN24; assay: HPLC-based SrtA activity assay at fixed inhibitor concentrations; format: biochemical; conditions: read-out: percent inhibition (%I)
# SrtA Cys184 = SrtA Cys184 (Staphylococcus aureus, UniProt Q2FV99); assay: ESI-MS and MS/MS of trypsin-digested inhibitor-treated SrtA; format: binding; conditions: SrtA incubated with compound, SDS-PAGE, trypsin digest
Compound,Hill Coefficient (S. aureus SrtAΔN24 [1]),other results
"C=CS(=O)(=O)[C@H]1C[C@@](CCC(=O)OC)(C(=O)OC)N[C@H]1c1ccc(OC)c(OC)c1 (relative stereo) [Compound 2k, Methyl (2S*,4S*,5S*)-5-(3,4-dimethoxyphenyl)-4-ethenesulfonyl-2-(2-methoxycarbonylethyl)pyrrolidine-2-carboxylate]",,IC50 (S. aureus SrtAΔN24 [1]): > 5 mM
"C=CS(=O)(=O)[C@H]1C[C@@](CCC(=O)OC)(C(=O)OC)N[C@H]1c1cccnc1 (relative stereo) [Compound 2l, Methyl (2S*,4S*,5S*)-4-ethenesulfonyl-2-(2-methoxycarbonylethyl)-5-pyridin-3-yl-pyrrolidine-2-carboxylate]",1.40 ± 0.33,
"C=CS(=O)(=O)[C@H]1C[C@]2(C(=O)OC)CCC(=O)N2[C@H]1c1ccccc1 (relative stereo) [Compound 3j, Methyl (2S*,3S*,7aS*)-2-ethenesulfonyl-5-oxo-3-phenyltetrahydropyrrolizine-7a-carboxylate]",1.90 ± 0.23,
"C=CS(=O)(=O)[C@H]1C[C@]2(C(=O)OC)CCC(=O)N2[C@H]1c1ccc(OC)c(OC)c1 (relative stereo) [Compound 3k, Methyl (2S*,3S*,7aS*)-3-(3,4-dimethoxyphenyl)-2-ethenesulfonyl-5-oxotetrahydropyrrolizine-7a-carboxylate]",1.39 ± 0.28,
"C=CS(=O)(=O)[C@H]1C[C@]2(C(=O)OC)CCC(=O)N2[C@H]1c1cccnc1 (relative stereo) [Compound 3l, Methyl (2S*,3S*,7aS*)-2-ethenesulfonyl-5-oxo-3-pyridin-3-yl-tetrahydropyrrolizine-7a-carboxylate]",1.42 ± 0.14,
"Cc1cn(C[C@@H]2C[C@H](C#N)[C@H](c3ccccc3)N2C)c(=O)[nH]c1=O (relative stereo) [Compound 9, (2R*,3S*,5S*)-1-Methyl-5-(5-methyl-2,4-dioxo-3,4-dihydro-2H-pyrimidin-1-ylmethyl)-2-phenylpyrrolidine-3-carbonitrile]",,inhibition at 1000 µM (S. aureus SrtAΔN24 [2]): 6%
C=CS(=O)(=O)C1CC(C(=O)OC)NC1c1cccc(F)c1 (stereo not shown) [Compound 2c],,covalent modification of SrtA (SrtA Cys184): formation of a covalent adduct with Cys184
